Tests used:
[1] = target: T1, Dual specificity mitogen-activated protein kinase kinase 6 (Homo sapiens) (UniProt P52564); settings: Compound concentration 1000.0 nM
T1 sequence (whole entry): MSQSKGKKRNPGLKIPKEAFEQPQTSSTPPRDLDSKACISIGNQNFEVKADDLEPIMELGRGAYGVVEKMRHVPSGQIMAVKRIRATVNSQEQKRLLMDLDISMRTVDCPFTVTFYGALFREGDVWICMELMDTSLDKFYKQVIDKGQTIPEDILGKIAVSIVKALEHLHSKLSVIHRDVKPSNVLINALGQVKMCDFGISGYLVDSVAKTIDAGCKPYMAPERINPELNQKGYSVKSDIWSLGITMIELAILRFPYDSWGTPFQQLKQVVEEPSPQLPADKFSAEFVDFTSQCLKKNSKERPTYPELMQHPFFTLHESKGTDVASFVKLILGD

[2] = target: Serine/threonine-protein kinase Nek10 (Homo sapiens) (UniProt Q6ZWH5); settings: Compound concentration 1000.0 nM
[3] = target: MAP kinase-interacting serine/threonine-protein kinase 1 (Homo sapiens) (UniProt Q9BUB5); settings: Compound concentration 1000.0 nM
[4] = test system: Tyrosine-protein kinase ABL1 (Homo sapiens), P00519 [Q252H]; settings: Compound concentration 1000.0 nM
[5] = test system: Receptor-type tyrosine-protein kinase FLT3 (Homo sapiens), P36888 [UNDEFINED MUTATION]; settings: Compound concentration 1000.0 nM
[6] = test system: Epidermal growth factor receptor (Homo sapiens), P00533 [UNDEFINED MUTATION]; settings: Compound concentration 1000.0 nM
[7] = target: Tyrosine-protein kinase Fer (Homo sapiens) (UniProt P16591); settings: Compound concentration 1000.0 nM
[8] = target: 3-phosphoinositide-dependent protein kinase 1 (Homo sapiens) (UniProt O15530); settings: Compound concentration 1000.0 nM
Sequence of 3-phosphoinositide-dependent protein kinase 1 (Homo sapiens) (O15530 whole entry): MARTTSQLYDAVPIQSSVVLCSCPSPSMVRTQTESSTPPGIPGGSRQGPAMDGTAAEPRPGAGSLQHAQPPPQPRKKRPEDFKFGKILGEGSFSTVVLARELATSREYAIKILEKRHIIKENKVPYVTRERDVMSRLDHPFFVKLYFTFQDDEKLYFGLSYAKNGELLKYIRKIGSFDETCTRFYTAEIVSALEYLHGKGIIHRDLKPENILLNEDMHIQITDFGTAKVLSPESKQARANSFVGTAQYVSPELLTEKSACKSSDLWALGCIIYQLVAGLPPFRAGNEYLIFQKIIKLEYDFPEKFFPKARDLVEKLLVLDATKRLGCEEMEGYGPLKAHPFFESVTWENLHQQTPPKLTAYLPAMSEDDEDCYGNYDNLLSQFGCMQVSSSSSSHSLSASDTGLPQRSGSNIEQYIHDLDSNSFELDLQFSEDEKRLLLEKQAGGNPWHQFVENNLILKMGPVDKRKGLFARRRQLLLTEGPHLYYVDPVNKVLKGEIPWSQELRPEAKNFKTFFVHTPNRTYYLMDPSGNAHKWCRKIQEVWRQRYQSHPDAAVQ

[9] = target: Calcium/calmodulin-dependent protein kinase type II subunit gamma (Homo sapiens) (UniProt Q13555); settings: Compound concentration 1000.0 nM
Sequence of Calcium/calmodulin-dependent protein kinase type II subunit gamma (Homo sapiens) (Q13555 whole entry): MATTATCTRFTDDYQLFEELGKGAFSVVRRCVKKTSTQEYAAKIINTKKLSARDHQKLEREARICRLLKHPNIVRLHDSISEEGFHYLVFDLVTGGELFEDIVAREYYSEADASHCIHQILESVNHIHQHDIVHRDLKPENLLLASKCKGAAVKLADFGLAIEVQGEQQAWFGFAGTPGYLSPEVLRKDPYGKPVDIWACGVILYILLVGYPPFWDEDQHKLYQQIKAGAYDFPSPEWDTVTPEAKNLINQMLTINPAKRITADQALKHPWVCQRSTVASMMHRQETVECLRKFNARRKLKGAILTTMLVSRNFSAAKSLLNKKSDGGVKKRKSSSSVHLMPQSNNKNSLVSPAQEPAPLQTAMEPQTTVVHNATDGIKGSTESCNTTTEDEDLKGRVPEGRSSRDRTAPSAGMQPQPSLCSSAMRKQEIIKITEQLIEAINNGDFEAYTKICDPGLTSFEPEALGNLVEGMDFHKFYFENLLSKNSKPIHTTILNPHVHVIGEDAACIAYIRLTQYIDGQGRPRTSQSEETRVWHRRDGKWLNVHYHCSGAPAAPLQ

[10] = target: Calcium/calmodulin-dependent protein kinase type 1B (Homo sapiens) (UniProt Q6P2M8); settings: Compound concentration 1000.0 nM
[11] = target: T2, Serine/threonine-protein kinase NLK (Homo sapiens) (UniProt Q9UBE8); settings: Compound concentration 1000.0 nM
T2 sequence (whole entry): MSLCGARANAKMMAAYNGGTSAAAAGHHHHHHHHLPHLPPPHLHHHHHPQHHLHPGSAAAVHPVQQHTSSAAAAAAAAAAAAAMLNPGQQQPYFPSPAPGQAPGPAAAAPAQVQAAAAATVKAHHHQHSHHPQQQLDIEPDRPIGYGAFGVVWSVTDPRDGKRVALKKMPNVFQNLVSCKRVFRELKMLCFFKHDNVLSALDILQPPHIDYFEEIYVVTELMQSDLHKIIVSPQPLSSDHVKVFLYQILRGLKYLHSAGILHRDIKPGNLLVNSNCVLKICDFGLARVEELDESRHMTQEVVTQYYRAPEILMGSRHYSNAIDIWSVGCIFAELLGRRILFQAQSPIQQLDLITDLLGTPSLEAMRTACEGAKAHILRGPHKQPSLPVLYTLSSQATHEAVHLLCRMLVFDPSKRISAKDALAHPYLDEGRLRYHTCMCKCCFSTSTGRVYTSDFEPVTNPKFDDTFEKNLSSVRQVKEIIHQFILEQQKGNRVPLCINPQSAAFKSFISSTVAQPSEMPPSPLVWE

[12] = target: Ribosomal protein S6 kinase alpha-5 (Homo sapiens, UniProt O75582); settings: Compound concentration 1000.0 nM
Sequence of Ribosomal protein S6 kinase alpha-5 (O75582 whole entry, looked up): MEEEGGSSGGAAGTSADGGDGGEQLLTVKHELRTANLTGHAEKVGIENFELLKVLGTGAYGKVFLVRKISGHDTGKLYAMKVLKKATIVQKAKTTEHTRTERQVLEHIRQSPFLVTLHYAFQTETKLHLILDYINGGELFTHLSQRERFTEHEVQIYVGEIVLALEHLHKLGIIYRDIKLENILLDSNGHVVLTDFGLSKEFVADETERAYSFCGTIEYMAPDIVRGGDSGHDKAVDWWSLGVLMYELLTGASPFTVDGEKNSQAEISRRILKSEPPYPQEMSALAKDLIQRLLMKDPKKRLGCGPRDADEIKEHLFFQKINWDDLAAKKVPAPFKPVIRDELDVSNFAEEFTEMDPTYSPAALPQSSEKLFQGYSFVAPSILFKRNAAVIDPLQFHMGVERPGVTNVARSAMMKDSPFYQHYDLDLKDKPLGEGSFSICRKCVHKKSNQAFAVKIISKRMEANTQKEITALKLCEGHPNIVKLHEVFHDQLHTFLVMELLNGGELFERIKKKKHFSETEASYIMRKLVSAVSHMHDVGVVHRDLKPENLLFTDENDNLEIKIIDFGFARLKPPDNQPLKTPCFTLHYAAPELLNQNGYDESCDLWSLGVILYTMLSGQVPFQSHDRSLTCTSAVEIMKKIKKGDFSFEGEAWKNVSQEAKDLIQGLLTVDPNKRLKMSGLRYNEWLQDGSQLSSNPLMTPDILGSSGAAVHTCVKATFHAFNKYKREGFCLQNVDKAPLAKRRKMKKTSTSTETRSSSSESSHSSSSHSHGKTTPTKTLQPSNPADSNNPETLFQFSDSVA

[13] = target: Dual specificity protein kinase CLK2 (Homo sapiens) (UniProt P49760); settings: Compound concentration 1000.0 nM
Sequence of Dual specificity protein kinase CLK2 (Homo sapiens) (P49760 whole entry, looked up): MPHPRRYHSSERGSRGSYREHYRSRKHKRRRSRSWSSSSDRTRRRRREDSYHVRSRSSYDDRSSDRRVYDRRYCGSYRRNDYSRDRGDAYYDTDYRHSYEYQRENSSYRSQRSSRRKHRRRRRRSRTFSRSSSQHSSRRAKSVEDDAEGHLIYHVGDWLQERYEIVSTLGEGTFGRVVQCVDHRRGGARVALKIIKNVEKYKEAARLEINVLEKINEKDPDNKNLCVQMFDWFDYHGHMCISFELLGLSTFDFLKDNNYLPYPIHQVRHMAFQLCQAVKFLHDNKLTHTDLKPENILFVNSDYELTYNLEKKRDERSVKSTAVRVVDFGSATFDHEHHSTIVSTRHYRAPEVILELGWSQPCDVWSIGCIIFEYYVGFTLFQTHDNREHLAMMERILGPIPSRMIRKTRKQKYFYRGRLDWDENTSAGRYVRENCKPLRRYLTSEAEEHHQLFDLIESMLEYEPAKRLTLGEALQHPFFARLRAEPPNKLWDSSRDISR

[14] = target: Phosphatidylinositol 5-phosphate 4-kinase type-2 gamma (Homo sapiens) (UniProt Q8TBX8); settings: Compound concentration 1000.0 nM
[15] = target: Protein-tyrosine kinase 2-beta (Homo sapiens) (UniProt Q14289); settings: Compound concentration 1000.0 nM
[16] = target: Myosin light chain kinase, smooth muscle (Homo sapiens) (UniProt Q15746); settings: Compound concentration 1000.0 nM
[17] = test system: Tyrosine-protein kinase ABL1 (Homo sapiens), P00519 [F317I]; settings: Compound concentration 1000.0 nM
[18] = test system: ALK tyrosine kinase receptor (Homo sapiens), Q9UM73 [L1196M]; settings: Compound concentration 1000.0 nM
[19] = target: Ribosomal protein S6 kinase alpha-1 (Homo sapiens, UniProt Q15418); settings: Compound concentration 1000.0 nM
[20] = target: ALK tyrosine kinase receptor (Homo sapiens) (UniProt Q9UM73); settings: Compound concentration 1000.0 nM
[21] = target: Mitogen-activated protein kinase kinase kinase 6 (Homo sapiens) (UniProt O95382); settings: Compound concentration 1000.0 nM
[22] = target: Casein kinase I isoform epsilon (Homo sapiens) (UniProt P49674); settings: Compound concentration 1000.0 nM
Sequence of Casein kinase I isoform epsilon (Homo sapiens) (P49674 whole entry, looked up, canonical isoform): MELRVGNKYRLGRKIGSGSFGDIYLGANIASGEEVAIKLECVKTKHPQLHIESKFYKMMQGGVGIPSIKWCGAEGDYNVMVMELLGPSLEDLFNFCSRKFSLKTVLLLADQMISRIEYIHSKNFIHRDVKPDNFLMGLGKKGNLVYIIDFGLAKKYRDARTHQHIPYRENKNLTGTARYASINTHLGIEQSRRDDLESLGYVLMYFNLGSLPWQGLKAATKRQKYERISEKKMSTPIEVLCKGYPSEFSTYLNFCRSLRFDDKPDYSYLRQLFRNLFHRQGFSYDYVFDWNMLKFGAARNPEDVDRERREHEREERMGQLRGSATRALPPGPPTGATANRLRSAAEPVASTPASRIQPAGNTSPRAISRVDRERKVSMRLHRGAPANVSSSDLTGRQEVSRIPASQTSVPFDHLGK

[23] = target: Dual specificity mitogen-activated protein kinase kinase 5 (Homo sapiens) (UniProt Q13163); settings: Compound concentration 1000.0 nM
[24] = target: Serine/threonine-protein kinase N2 (Homo sapiens) (UniProt Q16513); settings: Compound concentration 1000.0 nM
Sequence of Serine/threonine-protein kinase N2 (Homo sapiens) (Q16513 whole entry, looked up): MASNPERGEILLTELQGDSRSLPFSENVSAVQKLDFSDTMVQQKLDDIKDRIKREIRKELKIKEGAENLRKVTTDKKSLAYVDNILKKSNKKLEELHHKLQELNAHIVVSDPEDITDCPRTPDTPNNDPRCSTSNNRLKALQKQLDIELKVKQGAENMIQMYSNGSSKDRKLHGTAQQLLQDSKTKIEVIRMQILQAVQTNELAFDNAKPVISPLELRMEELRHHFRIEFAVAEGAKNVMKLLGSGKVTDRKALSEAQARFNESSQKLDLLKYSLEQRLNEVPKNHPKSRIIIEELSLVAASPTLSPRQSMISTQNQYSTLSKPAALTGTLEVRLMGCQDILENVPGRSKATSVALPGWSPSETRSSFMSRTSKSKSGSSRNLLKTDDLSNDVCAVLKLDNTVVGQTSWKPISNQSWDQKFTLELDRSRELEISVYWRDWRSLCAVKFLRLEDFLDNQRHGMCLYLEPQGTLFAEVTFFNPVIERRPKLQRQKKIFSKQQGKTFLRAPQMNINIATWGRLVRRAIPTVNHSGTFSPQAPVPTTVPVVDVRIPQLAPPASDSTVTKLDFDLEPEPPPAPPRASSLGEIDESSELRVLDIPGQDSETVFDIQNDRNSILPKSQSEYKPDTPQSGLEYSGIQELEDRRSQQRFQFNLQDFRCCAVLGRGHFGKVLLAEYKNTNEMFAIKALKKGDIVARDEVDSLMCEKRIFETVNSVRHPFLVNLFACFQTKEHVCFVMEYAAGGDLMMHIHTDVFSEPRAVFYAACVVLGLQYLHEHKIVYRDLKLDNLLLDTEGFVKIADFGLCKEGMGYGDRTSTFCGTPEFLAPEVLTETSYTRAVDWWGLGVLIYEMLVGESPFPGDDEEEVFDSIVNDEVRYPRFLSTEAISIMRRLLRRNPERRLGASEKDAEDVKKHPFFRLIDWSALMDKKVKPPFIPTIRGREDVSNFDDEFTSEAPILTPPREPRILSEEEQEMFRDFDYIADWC

[25] = target: Muscarinic acetylcholine receptor M1 (Homo sapiens) (UniProt P11229); settings: Compound concentration 10.0 uM
Sequence of Muscarinic acetylcholine receptor M1 (Homo sapiens) (P11229 whole entry): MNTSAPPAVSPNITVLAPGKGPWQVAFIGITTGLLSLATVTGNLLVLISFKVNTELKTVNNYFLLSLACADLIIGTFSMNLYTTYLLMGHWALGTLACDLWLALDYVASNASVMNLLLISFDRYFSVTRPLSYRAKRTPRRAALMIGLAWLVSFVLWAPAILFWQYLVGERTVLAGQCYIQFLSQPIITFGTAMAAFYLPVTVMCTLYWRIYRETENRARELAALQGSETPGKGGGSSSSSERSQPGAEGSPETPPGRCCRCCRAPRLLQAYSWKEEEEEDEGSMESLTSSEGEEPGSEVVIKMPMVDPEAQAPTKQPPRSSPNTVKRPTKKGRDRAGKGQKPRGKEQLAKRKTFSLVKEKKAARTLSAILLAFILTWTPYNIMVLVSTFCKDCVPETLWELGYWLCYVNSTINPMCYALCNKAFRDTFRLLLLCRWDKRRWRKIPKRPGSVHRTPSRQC

[26] = target: Protein kinase C delta type (Homo sapiens) (UniProt Q05655); settings: Compound concentration 1000.0 nM
Sequence of Protein kinase C delta type (Homo sapiens) (Q05655 whole entry, looked up): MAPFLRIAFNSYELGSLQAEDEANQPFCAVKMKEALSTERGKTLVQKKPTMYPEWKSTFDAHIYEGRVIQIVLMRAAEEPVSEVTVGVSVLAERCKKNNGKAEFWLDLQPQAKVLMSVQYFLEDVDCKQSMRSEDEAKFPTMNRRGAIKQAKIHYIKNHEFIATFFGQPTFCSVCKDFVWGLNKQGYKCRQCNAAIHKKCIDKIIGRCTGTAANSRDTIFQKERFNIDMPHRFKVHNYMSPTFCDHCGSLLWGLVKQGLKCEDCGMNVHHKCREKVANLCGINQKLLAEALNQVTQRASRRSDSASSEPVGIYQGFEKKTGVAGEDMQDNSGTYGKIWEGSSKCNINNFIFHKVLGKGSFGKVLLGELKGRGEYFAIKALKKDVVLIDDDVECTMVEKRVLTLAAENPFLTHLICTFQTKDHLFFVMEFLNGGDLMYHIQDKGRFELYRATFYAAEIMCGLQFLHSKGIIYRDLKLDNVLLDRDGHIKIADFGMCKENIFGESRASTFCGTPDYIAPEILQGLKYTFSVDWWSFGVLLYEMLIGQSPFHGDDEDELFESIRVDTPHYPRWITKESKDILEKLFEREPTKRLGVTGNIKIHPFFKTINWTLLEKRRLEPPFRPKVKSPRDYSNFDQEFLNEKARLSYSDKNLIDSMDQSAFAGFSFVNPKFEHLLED

[27] = target: Leukocyte tyrosine kinase receptor (Homo sapiens) (UniProt P29376); settings: Compound concentration 1000.0 nM

SMILES | residual activity [1] [%] | residual activity [2] [%] | residual activity [3] [%] | residual activity [4] [%] | residual activity [5] [%] | residual activity [6] [%] | residual activity [7] [%] | residual activity [8] [%] | residual activity [9] [%] | residual activity [10] [%] | residual activity [11] [%] | residual activity [12] [%] | residual activity [13] [%] | residual activity [14] [%] | residual activity [15] [%] | residual activity [16] [%] | residual activity [17] [%] | residual activity [18] [%] | residual activity [19] [%] | residual activity [20] [%] | further results
CCc1ccccc1C(=O)Nc1n[nH]c2c(C)c(F)c(C3C(C#N)=C(C)N(C)C(C)=C3C#N)cc12 [BAY-3827] | 98 | 100 | 100 | 82 | 11 | 79 | 90 | 86 | 79 | 100 | 100 | 1 | 55 | 77 | 92 | 55 | 100 | 83 | 100 | 98 | residual activity [21]: 100%; residual activity [22]: 100%; residual activity [23]: 100%; residual activity [24]: 100%; inhibition [25]: 2.81%; residual activity [26]: 55%; residual activity [27]: 94%
CC1=C(C#N)C(c2ccc3c(c2)c(NC(=O)c2ccccc2C)nn3C)C(C#N)=C(C)N1 [BAY-974] | 95 | 90 | 70 | 100 | 64 | 73 | 88 | 77 | 100 | 85 | 100 | 91 | 75 | 92 | 83 | 100 | 100 | 80 | 100 | 100 | residual activity [21]: 71%; residual activity [22]: 100%; residual activity [23]: 79%; residual activity [24]: 100%; inhibition [25]: -1.37%; residual activity [26]: 100%; residual activity [27]: 70%

— ChEMBL document CHEMBL4507319 (2021)
